Measurements taken from patent publication US7491849B2, “Oligoamine compounds and derivatives thereof for cancer therapy” (priority 2001, dated 2009).

Assays:
Assay type in all cases: cell-based
DuPro = assay: MTT assay, tumor cell growth, DuPro; conditions: 6 days incubation, read-out: ID50 (μM) values for Human Tumor Cell Lines, DuPro
Method: Effect of Saturated Oligoamines on Human Prostate Tumor Cell Growth by the MTT assay. Saturated oligoamines inhibited prostate cancer cell growth in vitro. DU-145 cells were most sensitive and PC-3 cells were less sensitive to the effects of oligoamines. In general, ID50 values of less than 0.5 μM were obtained (Table 2). Even though the PC-3 cells were relatively more resistant to the oligoamines, at a 5 μM concentration the oligoamines reduced the cell number to less than 1% of the control on day 6 of incubation. Tissue cultures and the MTT assay were performed as follows.
Tissue Culture. Cells were seeded into 75 cm^2 culture flasks with 15 ml of Eagle's minimal essential medium supplemented with 10% fetal calf serum and nonessential amino acids. The flasks were incubated in a humidified 95% air/5% CO2 atmosphere. The cells were grown for at least 24 h to ensure that they are in the log phase of growth and then they were treated with the oligoamines. Cells were harvested by treatment for 5 min with STV (saline A, 0.05% trypsin, 0.02% EDTA) at 37° C. The flasks were rapped on the lab bench, pipetted several times and aliquots of cell suspension were withdrawn and counted using a Coulter particle counter that has been standardized for counting each cell line using a hemacytometer.
MTT Assay: Trypsinized cell suspensions were diluted to seed 80 μl suspensions containing 500 cells in each well of a 96 well Corning microtiter plate and incubated overnight at 37° C. in a humidified incubator in 5% CO2. 20 μl of appropriately diluted stock solution of each drug were added to the middle 8 columns of cell suspension in the microtiter plates. Each drug concentration was run in quadruplicate. Outer columns of the plates were used for buffer controls. Cells were incubated with the drug for 6 days at 37° C. in 5% CO2/H2O atmosphere. 25 μl of 5 mg/ml solution of 3-(4,5-dimethylthiazol-2-yl)-2,5-diphenyl tetrazolium bromide (MTT) were added to each well and incubated for 4 hours at 37° C. in 5% CO2/H2O incubator. Cells were lysed by incubating overnight with 100 μl lysis buffer (500 ml of the lysis buffer contains: 100 g lauryl sulfate (SDS), 250 ml of N,N-dimethylformamide, and 2 ml of glacial acetic acid, made up to volume with water; pH 4.8).
The color was monitored at room temperature at 570 nm in a E-max Precision Microplate Reader (Molecular Devices Corporation, Sunnyvale, Calif.) and data was analyzed using cell survival software supplied by Molecular Devices Corporation.

DuPro Cells = assay: Cellular polyamine and oligoamine levels, DuPro cells (HPLC)
Method: Cellular Uptake of Oligoamines. There was considerable uptake of oligoamines by the cancer cell lines; see Table 3A (DuPro cells) and Table 3B (PC-3 cells). […] While not wishing to be limited by any particular theory of operation, the cytotoxicity is likely related to their strong aggregation effect on DNA.
Polyamine Analysis. An appropriate number of cells were taken from harvested samples and centrifuged at 1000 rpm at 4° C. for 5 min. The cells were washed twice with chilled Dulbecco's isotonic phosphate buffer (pH 7.4) by centrifugation at 1000 rpm at 4° C. and resuspended in the same buffer. After the final centrifugation, the supernatant was decanted, and […] of 8% sulfosalycilic acid was added to the cell pellet. The cells were sonicated, and the mixture was kept at 4° C. for at least 1 h. After centrifugation at 8000 g for 5 min, the supernatant was removed for analysis. An appropriate volume (50-100 μl) was fluorescence-labeled by derivatizing with dansyl chloride. Labeled polyamines were loaded onto a C-18 high-performance liquid chromatography column and separated by gradient elution with acetonitrile/water at 50° C. Peaks were detected and quantitated using Shimadzu HPLC fluorescence monitor coupled with a Spectra-Physics peak integrator. Because polyamine levels vary with environmental conditions, control cultures were sampled for each experiment.

PC-3 Cells = assay: Colony forming assay (CFE), PC-3 cells; conditions: ca. 1.5-2 μM, 5 days incubation, FIG. 2
Method: Assessment of Oligoamine Cytotoxicity by Colony Forming Assay. The cytotoxicity of the oligoamines was further assayed by the colony forming assay (CFE). Four saturated oligoamines were chosen for their ability to kill DuPro cells after 5 days of incubation. Oligoamines SL-11159, SL-11175 and SL-11226 had over 4 logs of cell kill on day 5 of treatment at 1-2 μM concentrations; see FIG. 1. […] The colony forming assay was performed as follows.
Colony Forming Efficiency Assay. All cell lines used in this assay have already been optimized with respect to the number of feeder cells and length of incubation time for observable colony formation. Cells were washed, harvested, and replated in quadruplicate at appropriate dilution into 60 mm plastic Petri dishes. The Petri dishes were prepared not more than 24 hr in advance with 4 ml of supplemented Eagle's minimum essential medium containing 5-10% fetal bovine serum (standardized for each cell line) for all cell lines. Cells were incubated for the previously standardized number of days in a 95% air/5% CO2 atmosphere. The plates were stained with 0.125% crystal violet in methanol and counted. Results are expressed as the surviving fraction of an appropriate control.

[1] = Day 4 of Treatment, analog conc. 0.8 μM
[2] = Day 4 of Treatment, analog conc. 1.6 μM
[3] = Day 6 of Treatment, analog conc. 0.8 μM

| Structure (SMILES) | IC50 (DuPro) | Polyamine levels, Analog (cellular oligoamine level) (DuPro Cells; [1]) | Polyamine levels, Put (DuPro Cells; [1]) | Polyamine levels, Analog (cellular oligoamine level) (DuPro Cells; [2]) | Polyamine levels, Put (DuPro Cells; [2]) | logs of cells killed (colony survival) (PC-3 Cells) | Polyamine levels, Spd (DuPro Cells; [1]) | Polyamine levels, Spm (DuPro Cells; [1]) | Polyamine levels, Analog (cellular oligoamine level) (DuPro Cells; [3]) | Polyamine levels, Put (DuPro Cells; [3]) |
| --- | --- | --- | --- | --- | --- | --- | --- | --- | --- | --- |
| CCNCCCCNCCCCNCCCCNCCCCNCCCCNCCCCNCCCCNCCCCNCCCCNCC.Cl.Cl.Cl.Cl.Cl.Cl.Cl.Cl.Cl.Cl [SL-11159] | 0.3 µM | 0.525 nmoles/10^6 cells | 0.560 nmoles/10^6 cells | 0.513 nmoles/10^6 cells | 0.137 nmoles/10^6 cells | four | – | – | – | – |
| CCNCCCCNCCCCNCCCCNCCCCNCCCCNCCCCNCCCCNCCCCNCCCCNCCCCNCCCCNCC.Cl.Cl.Cl.Cl.Cl.Cl.Cl.Cl.Cl.Cl.Cl.Cl [SL-11226] | 0.11 µM | 0.032 nmoles/10^6 cells | 0.593 nmoles/10^6 cells | – | – | – | 0.017 nmoles/10^6 cells | 0.067 nmoles/10^6 cells | 0.022 nmoles/10^6 cells | 0.548 nmoles/10^6 cells |
